System: chronic stomatitis
Experiment: Effectiveness of glutathione in treatment of cat stomatitis
Assay type: in vivo
[1] = one cat with AIDS and serious chronic stomatitis, 30 mg/kg per day mixed in the feed for two weeks

Compound	appetite [1]	fauces erosion and gum inflammation [1]	improvement of chronic stomatitis (same cat, nearly 10 years of treatment before the glutathione)
N[C@@H](CCC(=O)N[C@@H](CS)C(=O)NCC(=O)O)C(=O)O [reduced glutathione, gamma-L-Glu-L-Cys-Gly]	improved	dramatic improvements	–
interferon [reference compound]	–	–	no improvement
